From patent US11352330B2, “Phenoxymethyl derivatives” (Hoffmann-La Roche Inc., priority 2015, dated 2022)

What follows are compounds tested against human ATX (Homo sapiens (Human), UniProt Q13822) (assay: Human ATX enzyme inhibition assay (fluorescence quenching, MR121 substrate)). Conditions: human His-tagged ATX 30 nM, MR121 substrate 1 μM, 30° C.
Format: biochemical
Description: Human ATX Enzyme Inhibition Assay
ATX inhibition was measured by a fluorescence quenching assay using a specifically labeled substrate analogue (MR121 substrate). To obtain this MR121 substrate, BOC and TBS protected 6-amino-hexanoic acid (R)-3-({2-[3-(2-{2-[2-(2-amino-ethoxy)-ethoxy]-ethoxy}-ethoxy)-propionylamino]-ethoxy}-hydroxy-phosphoryloxy)-2-hydroxy-propyl ester (Ferguson et al., Org Lett 2006, 8 (10), 2023) was labeled with MR121 fluorophore (CAS 185308-24-1, 1-(3-carboxypropyl)-11-ethyl-1,2,3,4,8,9,10,11-octahydro-dipyrido[3,2-b:2′,3′-i]phenoxazin-13-ium) on the free amine of the ethanolamine side and then, after deprotection, subsequently with tryptophan on the side of the aminohexanoic acid.
Assay working solutions were made as follows:
Assay buffer (50 mM Tris-HCl, 140 mM NaCl, 5 mM KCl, 1 mM CaCl2, 1 mM MgCl2, 0.01% Triton-X-100, pH 8.0;
ATX solution: ATX (human His-tagged) stock solution (1.08 mg/mL in 20 mM bicine, pH 8.5, 0.15 M NaCl, 10% glycerol, 0.3% CHAPS, 0.02% NaN3), diluted to 1.4-2.5× final concentration in assay buffer;
MR121 substrate solution: MR121 substrate stock solution (800 μM MR121 substrate in DMSO), diluted to 2-5× final concentration in assay buffer.
Test compounds (10 mM stock in DMSO, 8 μL) were obtained in 384 well sample plates (Corning Costar #3655) and diluted with 8 μL DMSO. Row-wise serial dilutions were made by transferring 8 μL cpd solution to the next row up to row O. The compound and control solutions were mixed five times and 2 μL were transferred to 384 well assay plates (Corning Costar #3702). Then, 15 μL of 41.7 nM ATX solution was added (30 nM final concentration), mixed five times and then incubated for 15 minutes at 30° C. 10 μL of MR121 substrate solution was added (1 μM final concentration), mixed 30 times and then incubated for 15 minutes at 30° C.

| IC50 [nM] | Structure (SMILES) |
| --- | --- |
| 8 | Cc1cc(OCc2n[nH]c3nc(N4CC(O)C4)ncc23)c(C(C)(C)C)cc1C#N [Example D32, 5-tert-Butyl-4-[[6-(3-hydroxyazetidin-1-yl)-1H-pyrazolo[3,4-d]pyrimidin-3-yl]methoxy]-2-methylbenzonitrile] |
| 1600 | Cn1c(COc2ccc(N3CCOCC3)cc2C(C)(C)C)n[nH]c1=O [Example A8] |
| 5 | Cc1cc(OCc2n[nH]c(=O)n2C)c(C(C)C)cc1Cl [Example A28] |
| 9 | Cc1cc(OCc2n[nH]c3nc(OCCO)ncc23)c(C(C)(C)C)cc1C#N [Example D38, 5-tert-Butyl-4-[[6-(2-hydroxyethoxy)-1H-pyrazolo[3,4-d]pyrimidin-3-yl]methoxy]-2-methylbenzonitrile] |
| 99 | Cc1cc(OCc2n[nH]c3cccnc23)c(-c2cccc(C(=O)N(C)C)c2)cc1Cl [Example D24] |
| 7 | Cc1cc(OCc2ccc(=O)[nH]n2)c(C2CCCCC2)cc1Cl [Example C6, 3-[(4-chloro-2-cyclohexyl-5-methylphenoxy)methyl]-1H-pyridazin-6-one] |
| 5 | Cn1c(COc2cc(Cl)c(C#N)cc2-c2cc(Cl)ccc2F)n[nH]c1=O [Example B93] |
| 43 | Cn1c(COc2cc(Cl)c(C#N)cc2-c2ccccc2)n[nH]c1=O [Example B31] |
| 10 | Cc1cc(OCc2n[nH]c(=O)n2C)c(-c2cc(C(=O)N(C)C3CC3)ccc2F)cc1Cl [Example B63] |
| 14 | Cc1cc(OCc2n[nH]c3ccccc23)c(C(C)C)cc1Cl [Example D2, 3-[(4-Chloro-5-methyl-2-propan-2-ylphenoxy)methyl]-1H-indazole] |
| 523 | Cn1ccnc1-c1ccc(OCc2n[nH]c(=O)n2C)c(C(C)(C)C)c1 [Example A6] |
| 2610 | Cn1cncc1-c1ccc(OCc2n[nH]c(=O)n2C)c(C(C)(C)C)c1 [Example A9] |
| 50 | CC(C)c1cc(Cl)ccc1OCc1n[nH]c(=O)n1C [Example A29] |
| 6 | COCCN(C)C(=O)c1ccc(F)c(-c2cc(Cl)c(C)cc2OCc2n[nH]c3ncccc23)c1 [Example D40] |
| 10 | COC(=O)c1cc(COc2cc(C)c(Cl)cc2C(C)(C)C)n[nH]1 [Example F3, Methyl 3-((2-(tert-butyl)-4-chloro-5-methylphenoxy)methyl)-1H-pyrazole-5-carboxylate] |
| 62 | Cc1cc(OCc2n[nH]c(=O)n2C)c(C2CCOCC2)cc1Cl [Example A21] |
| 12 | Cc1cc(OCc2n[nH]c(=O)n2C(C)C)c(C(C)(C)C)cc1C#N [Example A26, 5-tert-Butyl-2-methyl-4-[(5-oxo-4-propan-2-yl-1H-1,2,4-triazol-3-yl)methoxy]benzonitrile] |
| 28 | Cn1c(COc2cc(C#N)c(Cl)cc2C(C)(C)C)n[nH]c1=O [Example A34, 4-tert-Butyl-2-chloro-5-[(4-methyl-5-oxo-1H-1,2,4-triazol-3-yl)methoxy]benzonitrile] |
| 37 | Cn1c(COc2cc(Cl)c(C#N)cc2-c2cc(C(F)(F)F)ccc2F)n[nH]c1=O [Example B96] |
| 4 | Cc1cc(OCc2n[nH]c3ncccc23)c(C(C)(C)C)cc1Cl [Example D3, 3-[(2-tert-Butyl-4-chloro-5-methylphenoxy)methyl]-1H-pyrazolo[3,4-b]pyridine] |
| 3720 | Cc1cc(OCc2n[nH]c(=O)n2C)c(-c2cncn2C)cc1Cl [Example B27, 3-[[4-Chloro-5-methyl-2-(3-methylimidazol-4-yl)phenoxy]methyl]-4-methyl-1H-1,2,4-triazol-5-one] |
| 91 | Cn1c(COc2cc(C#N)ccc2C(C)(C)C)n[nH]c1=O [Example A24] |
| > 27000 | Cn1c(COc2cc(NS(C)(=O)=O)c(Cl)cc2C2CC2)n[nH]c1=O [Example A23] |
| 19 | Cc1cc(OCc2n[nH]c3nc(F)ccc23)c(C(C)(C)C)cc1Cl [Example D6, 3-[(2-tert-Butyl-4-chloro-5-methylphenoxy)methyl]-6-fluoro-1H-pyrazolo[3,4-b]pyridine] |
| 4 | CC(C)c1cc(Cl)c(F)cc1OCc1ccc(=O)[nH]n1 [Example C3, 3-[(4-chloro-5-fluoro-2-propan-2-ylphenoxy)methyl]-1H-pyridazin-6-one] |
| 32 | Cc1cc(C(C)(C)C)c(OCc2n[nH]c3ncccc23)cc1C#N [Example D48] |
| 8 | COC(=O)c1ccc(C)c(-c2cc(Cl)c(C)cc2OCc2n[nH]c(=O)n2C)c1 [Example B49, Methyl 3-[5-chloro-4-methyl-2-[(4-methyl-5-oxo-1H-1,2,4-triazol-3-yl)methoxy]phenyl]-4-methylbenzoate] |

| IC50 [nM] | Structure (SMILES) |
| --- | --- |
| 958 | Cn1c(COc2cc(C(N)=O)ccc2C(C)(C)C)n[nH]c1=O [Example A25] |
| 82 | Cc1cc(OCc2n[nH]c(=O)n2C)c(-c2cccc(C(=O)NCCC(=O)O)c2)cc1Cl [Example B47] |
| 202 | COc1ncccc1-c1cc(Cl)c(C)cc1OCc1n[nH]c2c1CCNC2 [Example E7, 3-((4-Chloro-2-(2-methoxypyridin-3-yl)-5-methylphenoxy)methyl)-4,5,6,7-tetrahydro-1H-pyrazolo[3,4-c]pyridine] |
| 215 | Cc1cc(OCc2n[nH]c3ncccc23)c(C(C)(C)C)cc1S(C)(=O)=O [Example D9] |
| 65 | Cc1cc(OCc2n[nH]c(=O)n2C)c(-c2cccc(Cl)n2)cc1Cl [Example B19] |
| 104 | Cc1nnc(-c2ccc(OCc3n[nH]c(=O)n3C)c(C(C)(C)C)c2)o1 [Example A10] |
| 15 | Cc1cc(OCc2n[nH]c(=O)n2C)c(-c2cc(C(=O)N3CCOCC3)ccc2F)cc1Cl [Example B40] |
| 98 | Cc1cc(OCc2n[nH]c3cccnc23)c(-c2cc(C(=O)N(C)C)ccc2F)cc1Cl [Example D28] |
| 9 | Cn1c(COc2cc(Cl)c(C#N)cc2-c2cc(OCC(F)(F)F)ccc2F)n[nH]c1=O [Example B98, 2-chloro-5-[2-fluoro-5-(2,2,2-trifluoroethoxy)phenyl]-4-[(4-methyl-5-oxo-1H-1,2,4-triazol-3-yl)methoxy]benzonitrile] |
| 2 | Cc1cc(OCc2n[nH]c3ncccc23)c(-c2cccc(C(=O)N3CCOCC3)c2)cc1Cl [Example D17, [3-[5-Chloro-4-methyl-2-(1H-pyrazolo[3,4-b]pyridin-3-ylmethoxy)phenyl]phenyl]-morpholin-4-ylmethanone] |
| 6 | Cc1cc(OCc2n[nH]c3ncccc23)c(-c2cc(C(=O)N3CCCC3)ccc2F)cc1Cl [Example D42] |
| 12 | Cc1cc(OCc2n[nH]c(=O)n2C)c(-c2cccc(C(=O)NC3CCCCC3)c2)cc1Cl [Example B9] |
| 12 | Cc1cc(OCc2n[nH]c(=O)n2C)c(-c2cc(C(N)=O)ccc2OC(F)(F)F)cc1Cl [Example B52] |
| 10 | Cn1c(COc2cc(F)c(Cl)cc2C(C)(C)C)n[nH]c1=O [Example A2] |
| 15 | Cc1cc(OCc2cc(C(=O)N(C)C)[nH]n2)c(C(C)(C)C)cc1Cl [Example F5, 3-((2-(tert-Butyl)-4-chloro-5-methylphenoxy)methyl)-N,N-dimethyl-1H-pyrazole-5-carboxamide] |
| 3 | Cc1cc(C(C)C)c(OCc2ccc(=O)[nH]n2)cc1Cl [Example C4, 3-[(5-chloro-4-methyl-2-propan-2-ylphenoxy)methyl]-1H-pyridazin-6-one] |
| 4 | Cn1c(COc2cc(Cl)c(C#N)cc2-c2cccc(F)c2F)n[nH]c1=O [Example B91] |
| 245000 | CC(C)(C)c1cc(S(C)(=O)=O)ccc1OCc1n[nH]c2ccccc12 [Example D1] |
| 9 | Cc1cc(OCc2n[nH]c3ncccc23)c(-c2cc(C(=O)N(C)C)ccc2F)cc1Cl [Example D21] |
| 3 | N#Cc1cc(-c2cc(OC(F)(F)F)ccc2F)c(OCc2n[nH]c3ncccc23)cc1Cl [Example D55] |
| 8 | Cn1c(COc2cc(Cl)c(C#N)cc2-c2cc(OC(F)(F)F)ccc2F)n[nH]c1=O [Example B97, 2-chloro-5-[2-fluoro-5-(trifluoromethoxy)phenyl]-4-[(4-methyl-5-oxo-1H-1,2,4-triazol-3-yl)methoxy]benzonitrile] |
| 10 | Cn1c(COc2cc(Cl)c(C#N)cc2-c2cc(C(=O)N3CCOCC3)ccc2F)n[nH]c1=O [Example B61] |
| 23 | Cc1cc(OCc2n[nH]c(=O)n2C)c(-c2cccc(C(=O)N3CCOCC3)c2)cc1Cl [Example B10] |
| 11 | Cc1cc(OCc2n[nH]c(=O)n2C)c(-c2cc(OC(C)C)ccc2F)cc1Cl [Example B57] |
| 8 | Cc1cc(OCc2cc(C(=O)N3CCCC3)[nH]n2)c(C(C)(C)C)cc1Cl [Example F4, (3-((2-(tert-Butyl)-4-chloro-5-methylphenoxy)methyl)-1H-pyrazol-5-yl)(pyrrolidin-1-yl)methanone] |
| 15 | Cc1cc(OCc2n[nH]c(=O)n2C)c(-c2c(F)ccc3c2oc(=O)n3C)cc1Cl [Example B77] |
